Experimental data: patent US11766405B2 (MEDAC GESELLSCHAFT FUR KLINISCHE SPEZIALPRAPARATE MBH, priority 2013, dated 2023)
Values joined by “and” are separate entries in the source; they are usually repeats but may differ in a detail not shown here. Equal entries are not always repeated.

Columns and labels:
Assay type in all cases: physicochemical
[1] = Impurities / purity, process 4 (impurities process Ph Eur 8.0 Mitomycin Monograph); conditions: for Impurity albomitomycin C / Sum of all impurities: Example 13 urea lyophilisate, process 4; for Mitomycin purity: No. 7: DMSO 100 wt.-%, 1.82 mg/g mitomycin C, 27.3 mg/g urea, room temperature, exclusion of light
Method: The composition according to the invention comprises the impurities D1, D2 and albomitomycin C in a total quantity of in particular less than 2.0%, preferably less than 1.5%, particularly preferably less than 1.0%, more preferably less than 0.8% and quite particularly preferably less than 0.6%, wherein the quantity of these impurities is determined according to the impurities process according to Ph Eur 8.0 Mitomycin Monograph January 2008: 1655. In the examples, this determination process is also referred to as process 4.
(§1) The solutions were stored at room temperature and with exclusion of light for a period of up to 71.5 hours.
Process 3 corresponds to the content process according to Ph Eur 8.0 Mitomycin Monograph January 2008: 1655. Process 4 corresponds to the impurities process according to Ph Eur 8.0 Mitomycin Monograph January 2008: 1655.
(§2) The reconstitution was effected with 20 and 40 ml respectively of isotonic saline solution to an end concentration of 1 mg/ml.

[2] = Mitomycin C content, process 3 (content process Ph Eur 8.0 Mitomycin Monograph); conditions: for Mitomycin C content: process 3; for Mitomycin content: No. 6: DMSO/DMAA 5.7/94.3 wt.-%, 0.53 mg/g mitomycin C, 8.0 mg/g urea, room temperature, exclusion of light
Method: as §1
Process 3 corresponds to the content process according to Ph Eur 8.0 Mitomycin Monograph January 2008: 1655. Process 4 corresponds to the impurities process according to Ph Eur 8.0 Mitomycin Monograph January 2008: 1655. […]

[3] = HPLC determination of impurities / mitomycin purity, process 2 (UV 254 nm)
Method: Column: YMC-Pack Phenyl 4.6 mm×300 mm, 10 μm […]
Purity determinations according to process 2 were performed at different times. […]

[4] = Reconstitution time of lyophilisates; conditions: Example 13 urea lyophilisate
Method: Moreover, the lyophilisates could be completely reconstituted with isotonic saline solution in very much less than 30 secs.
In addition, the reconstitution time was determined.
as §2

[5] = 20 mg mitomycin C, 40° C. and 75% r.h., t = 3 months
[6] = 20 mg mitomycin C, 40° C. and 75% r.h., t = 6 months
[7] = 40 mg mitomycin C, 40° C. and 75% r.h., t = 3 months
[8] = 40 mg mitomycin C, 40° C. and 75% r.h., t = 6 months

SMILES: CO[C@@]12[C@H](COC(N)=O)C3=C(C(=O)C(C)=C(N)C3=O)N1C[C@@H]1N[C@@H]12 [Mitomycin C, (1aS,8S,8aR,8bS)-6-amino-8-[[(aminocarbonyl)oxy]methyl]-1,1a,2,8,8a,8b-hexahydro-8a-methoxy-5-methyl-azirino[2′,3′:3,4]pyrrolo[1,2-a]indol-4,7-dione]
- Impurity albomitomycin C [1, 5]: 0.20%
- Sum of all impurities [1, 5]: 0.55%
- Impurity albomitomycin C [1, 6]: 0.26%
- Sum of all impurities [1, 6]: 0.61%
- Impurity albomitomycin C ([1]; 20 mg mitomycin C, t = 0): 0.29%
- Sum of all impurities ([1]; 20 mg mitomycin C, t = 0): 0.29%
- Impurity albomitomycin C [1, 7]: 0.22%
- Sum of all impurities [1, 7]: 0.55
- Impurity albomitomycin C [1, 8]: 0.21%
- Sum of all impurities [1, 8]: 0.58
- Impurity albomitomycin C ([1]; 40 mg mitomycin C, t = 0): 0.32%
- Sum of all impurities ([1]; 40 mg mitomycin C, t = 0): 0.32
- Mitomycin purity ([1]; t = 0): 100%
- Mitomycin purity ([1]; t = 4 h): 99.31%
- Mitomycin purity ([1]; t = 6.5 h): 99.32%
- Mitomycin purity ([1]; t = 13 h): 99.19%
- Mitomycin purity ([1]; t = 20 h): 99.36%
- Mitomycin purity ([1]; t = 26.5 h): 99.32%
- Mitomycin C content ([2]; Example 13 urea lyophilisate, 20 mg mitomycin C, 40° C. and 75% r.h., t = 3 months): 98.2%
- Mitomycin C content ([2]; Example 13 urea lyophilisate, 20 mg mitomycin C, 40° C. and 75% r.h., t = 6 months): 98.3%
- Mitomycin C content ([2]; Example 13 urea lyophilisate, 20 mg mitomycin C, t = 0): 97.8%
- Mitomycin C content ([2]; Example 13 urea lyophilisate, 40 mg mitomycin C, 40° C. and 75% r.h., t = 3 months): 96.6%
- Mitomycin C content ([2]; Example 13 urea lyophilisate, 40 mg mitomycin C, 40° C. and 75% r.h., t = 6 months): 96.7%
- Mitomycin C content ([2]; Example 13 urea lyophilisate, 40 mg mitomycin C, t = 0): 97.2%
- Mitomycin C content ([2]; Example 14 urea lyophilisate (20 mg) reconstituted with water for injection, end concentration 1 mg/ml): 100.6%
- Mitomycin C content ([2]; Example 14 urea lyophilisate (20 mg) reconstituted with water for injection, end concentration 2 mg/ml): 100.6%
- Mitomycin content ([2]; t = 0): 100%
- Mitomycin content ([2]; t = 6.5 h): 99.93%
- Mitomycin content ([2]; t = 14.5 h): 99.62%
- Mitomycin content ([2]; t = 21 h): 98.84%
- Mitomycin content ([2]; t = 42 h): 99.11%
- Mitomycin content ([2]; t = 71.5 h): 98.58%
- Mitomycin purity [3]: 98.86% and 96.77% and 97.04%
- Mitomycin purity ([3]; Example 5 solution: 3.33 mg/g mitomycin C, 5 wt.-% urea, 89/11 wt.-% tert.-butanol/water, 5° C. with exclusion of light, t = 0): 99.23%
- Mitomycin purity ([3]; Example 5 solution: 3.33 mg/g mitomycin C, 5 wt.-% urea, 89/11 wt.-% tert.-butanol/water, 5° C. with exclusion of light, t = 6 h): 99.18%
- Mitomycin purity ([3]; Example 5 solution: 3.33 mg/g mitomycin C, 5 wt.-% urea, 89/11 wt.-% tert.-butanol/water, 5° C. with exclusion of light, t = 24 h): 99.20%
- Mitomycin purity ([3]; Example 5 solution: 3.33 mg/g mitomycin C, 5 wt.-% urea, 89/11 wt.-% tert.-butanol/water, 5° C. with exclusion of light, t = 72 h): 98.80%
- Mitomycin purity ([3]; Example 5 solution: 3.33 mg/g mitomycin C, 5 wt.-% urea, 89/11 wt.-% tert.-butanol/water, 5° C. with exclusion of light, t = 9 d): 98.21%
- Mitomycin purity ([3]; Example 5 solution: 3.33 mg/g mitomycin C, 5 wt.-% urea, 89/11 wt.-% tert.-butanol/water, RT with exclusion of light, t = 0): 99.33%
- Mitomycin purity ([3]; Example 5 solution: 3.33 mg/g mitomycin C, 5 wt.-% urea, 89/11 wt.-% tert.-butanol/water, RT with exclusion of light, t = 6 h): 98.83%
- Mitomycin purity ([3]; Example 5 solution: 3.33 mg/g mitomycin C, 5 wt.-% urea, 89/11 wt.-% tert.-butanol/water, RT with exclusion of light, t = 24 h): 97.80%
- Mitomycin purity ([3]; Example 5 solution: 3.33 mg/g mitomycin C, 5 wt.-% urea, 89/11 wt.-% tert.-butanol/water, RT with exclusion of light, t = 72 h): 96.74%
- Mitomycin purity ([3]; Example 5 solution: 3.33 mg/g mitomycin C, 5 wt.-% urea, 89/11 wt.-% tert.-butanol/water, RT with exclusion of light, t = 9 d): 96.35%
- Mitomycin purity ([3]; Example 5 solution: 3.33 mg/g mitomycin C, 5 wt.-% urea, 89/11 wt.-% tert.-butanol/water, RT without protection against light, t = 0): 99.32%
- Mitomycin purity ([3]; Example 5 solution: 3.33 mg/g mitomycin C, 5 wt.-% urea, 89/11 wt.-% tert.-butanol/water, RT without protection against light, t = 6 h): 98.83%
- Mitomycin purity ([3]; Example 5 solution: 3.33 mg/g mitomycin C, 5 wt.-% urea, 89/11 wt.-% tert.-butanol/water, RT without protection against light, t = 24 h): 97.60%
- Mitomycin purity ([3]; Example 5 solution: 3.33 mg/g mitomycin C, 5 wt.-% urea, 89/11 wt.-% tert.-butanol/water, RT without protection against light, t = 72 h): 96.14%
- Mitomycin purity ([3]; Example 5 solution: 3.33 mg/g mitomycin C, 5 wt.-% urea, 89/11 wt.-% tert.-butanol/water, RT without protection against light, t = 9 d): 95.78%
- Mitomycin C purity ([3]; Example 7 solution: 1.33 mg/g mitomycin C, 20 mg/g urea, 89/11 wt.-% tert.-butanol/water, 5° C. with exclusion of light, t = 27 h): 99.7%
- Mitomycin C purity ([3]; Example 7 solution: 1.33 mg/g mitomycin C, 20 mg/g urea, 89/11 wt.-% tert.-butanol/water, RT with exclusion of light, t = 5 h): 99.7%
- Mitomycin C purity ([3]; Example 7 solution: 1.33 mg/g mitomycin C, 20 mg/g urea, 89/11 wt.-% tert.-butanol/water, RT with exclusion of light, t = 22 h): 99.2%
- Mitomycin C purity ([3]; Example 7 solution: 1.33 mg/g mitomycin C, 20 mg/g urea, 89/11 wt.-% tert.-butanol/water, RT with exclusion of light, t = 27 h): 98.9%
- Mitomycin C purity ([3]; Example 8 solution: 1.67 mg/g mitomycin C, 25 mg/g urea, 89/11 wt.-% tert.-butanol/water, RT with exclusion of light, t = 5 h): 99.6%
- Mitomycin C purity ([3]; Example 8 solution: 1.67 mg/g mitomycin C, 25 mg/g urea, 89/11 wt.-% tert.-butanol/water, RT with exclusion of light, t = 22 h): 99.1%
- Mitomycin C purity ([3]; Example 8 solution: 1.67 mg/g mitomycin C, 25 mg/g urea, 89/11 wt.-% tert.-butanol/water, RT with exclusion of light, t = 27 h): 98.6%
- Reconstitution time ([4]; 20 mg mitomycin C, 20 ml isotonic saline to 1 mg/ml, 40° C. and 75% r.h., t = 3 months): 12 s
- Reconstitution time ([4]; 20 mg mitomycin C, 20 ml isotonic saline to 1 mg/ml, 40° C. and 75% r.h., t = 6 months): 17 s
- Reconstitution time ([4]; 20 mg mitomycin C, 20 ml isotonic saline to 1 mg/ml, t = 0): 7 s
- Reconstitution time ([4]; 40 mg mitomycin C, 40 ml isotonic saline to 1 mg/ml, 40° C. and 75% r.h., t = 3 months): 20 s
- Reconstitution time ([4]; 40 mg mitomycin C, 40 ml isotonic saline to 1 mg/ml, 40° C. and 75% r.h., t = 6 months): 18 s
- Reconstitution time ([4]; 40 mg mitomycin C, 40 ml isotonic saline to 1 mg/ml, t = 0): 6 s
